Measured values from patent EP3253400B1, “OLEANOYL PEPTIDE COMPOSITION” (Majeed, Muhammed, priority 2015, dated 2023).
No end group written: not given here.

Legend:
[1] = system: Transforming Growth Factor-β (TGF- β); assay: TGF-β production by Human Dermal Fibroblast cells, ELISA; type: cell-based; conditions: HDF cells, graded concentrations, 48 hrs, vs un-treated cells; values only in Fig. 1
Experimental: (§1) Evaluation of Transforming Growth factor beta (TGF-β) and Fibroblast Growth Factor (FGF): Human Dermal Fibroblast (HDF) cells were cultured in DMEM medium with 10% FBS and seeded in 96 well tissue culture plate for the test. […] After 48hrs the supernatant was collected from each well. The amount of TGF-β and FGF produced by the various treated HDF was quantified using ELISA method according to the kit protocol provided by the manufacturer (R&D Systems) and absorbance was measured at 450 nm using Fluostar Optima. Standard curve was generated by plotting absorbance values of standards against appropriate TGF-β/ FGF concentrations. TGF-β/ FGF concentrations of the control and test samples were calculated from the standard graph equation. Percentage increase of expression in test samples was calculated with respect to un-treated cells. The results of the experiment are exemplified in Figs. 1 and 2 respectively. The importance of TGF- β1 in the synthesis of extracellular matrix in well established in • 1. Yang T et al, "miR-29 mediates TGFβ1-induced extracellular matrix synthesis through activation of PI3K-AKT pathway in human lung fibroblasts", J Cell Biochem. 2013 Jun;114(6):1336-42; • 2. Tan J et al, "MicroRNA-29 mediates TGFβ1-induced extracellular matrix synthesis by targeting wnt/β-catenin pathway in human orbital fibroblasts." Int J Clin Exp Pathol. 2014 Oct 15;7(11):7571-7; • 3. […]

Fibroblast Growth Factor = assay: FGF production by Human Dermal Fibroblast cells, ELISA; type: cell-based; conditions: HDF cells, graded concentrations, 48 hrs, vs un-treated cells; values only in Fig. 2
Experimental: as §1

CDSN = conditions: gene CDSN (corneodesmosin); EFT-400 culture, 100 µL applied, 24 hours
Experimental: (§2) The objective of the study was to understand how application of test composition containing peptide of SEQ ID No. 1 linked to oleanolic acid represented by STR#1 influences gene expression in the skin. The current study was conducted using a full-thickness in vitro skin culture model (EFT-400, MatTek). One hundred microliters of Test Material was applied to the surface of each test culture and incubated for a period of 24 hours.
(§3) Treatment and Maintenance of cultures: 100 µL of test composition containing peptide of SEQ ID No. 1 linked to oleanolic acid represented by STR#1 was applied to the center of each EFT-400 culture. A sterile glass spreader was used to distribute the Test Material. Each culture was visually inspected to ensure even distribution. Following application, the cultures were returned to the incubator at 37°C with 5% CO2 for 24 hours. After 24 hours, the Test Materials were washed from the surface of each culture with sterile PBS. Following removal of test material, each culture was cut into quarters and placed into RNA solution.
(§4) RNA Isolation: RNA was isolated from tissues using a Maxwell 16 LEV RNA Tissue kit following the manufacturer's instructions (Promega) and vacuum concentrated until >200ng/uL as required for OpenArray processing. RNA concentration and purity were determined using a Nanodrop 2000 spectrophotometer. cDNA synthesis: cDNA was generated using a High Capacity cDNA Synthesis Kit according to the manufacturer's instructions for OpenArray processing (Life Technologies).
(§5) qPCR Processing: qPCR reactions were run using validated Taqman gene expression assays in an OpenArray format. OpenArrays were run in a Life Technologies QuantStudio 12K Flex instrument.
(§6) Data Analysis: qPCR data was imported into RealTime StatMiner software v4.2 for statistical analysis using the relative quantitation (RQ) method. In the first step of an RQ analysis, the CT value of the target gene is normalized to the CT value of an endogenous control gene for each sample to generate the delta CT (dCT).

PTGS2 = conditions: gene PTGS2 (Prostaglandin endoperoxide synthase 2/ COX2); EFT-400 culture, 100 µL applied, 24 hours
Experimental: as §2, §3, §4, §5, §6

CALML5 = conditions: gene CALML5 (calmodulin-like 5); EFT-400 culture, 100 µL applied, 24 hours
Experimental: as §2, §3, §4, §5, §6

DSG3 = conditions: gene DSG3 (desmoglein 3); EFT-400 culture, 100 µL applied, 24 hours
Experimental: as §2, §3, §4, §5, §6

TGFB1 = conditions: gene TGFB1 (transforming growth factor, beta 1); EFT-400 culture, 100 µL applied, 24 hours
Experimental: as §2, §3, §4, §5, §6

KRT4 = conditions: gene KRT4 (keratin 4); EFT-400 culture, 100 µL applied, 24 hours
Experimental: as §2, §3, §4, §5, §6

BMP2 = conditions: gene BMP2 (bone morphogenetic protein 2); EFT-400 culture, 100 µL applied, 24 hours
Experimental: as §2, §3, §4, §5, §6

KRT10 = conditions: gene KRT10 (keratin 10); EFT-400 culture, 100 µL applied, 24 hours
Experimental: as §2, §3, §4, §5, §6

LCE3D = conditions: gene LCE3D (late cornified envelope 3D); EFT-400 culture, 100 µL applied, 24 hours
Experimental: as §2, §3, §4, §5, §6

PPARD = conditions: gene PPARD (peroxisome proliferator-activated receptor); EFT-400 culture, 100 µL applied, 24 hours
Experimental: as §2, §3, §4, §5, §6

HSP-47 = conditions: EFT-400 culture, 100 µL applied, 24 hours; values only in Fig. 5
Experimental: as §2, §3, §4, §5, §6

ILIA = conditions: gene ILIA (interleukin 1, alpha); EFT-400 culture, 100 µL applied, 24 hours
Experimental: as §2, §3, §4, §5, §6

IL8 = conditions: gene IL8 (interleukin 8); EFT-400 culture, 100 µL applied, 24 hours
Experimental: as §2, §3, §4, §5, §6

FLG = conditions: gene FLG (filaggrin); EFT-400 culture, 100 µL applied, 24 hours
Experimental: as §2, §3, §4, §5, §6

MKI67 = conditions: gene MKI67 (antigen identified by Ki-67 antibody); EFT-400 culture, 100 µL applied, 24 hours
Experimental: as §2, §3, §4, §5, §6

AQP5 = conditions: gene AQP5 (aquaporin 5); EFT-400 culture, 100 µL applied, 24 hours
Experimental: as §2, §3, §4, §5, §6

TNF = conditions: gene TNF (tumor necrosis factor (TNFsuperfamily,member)); EFT-400 culture, 100 µL applied, 24 hours
Experimental: as §2, §3, §4, §5, §6

CLDN7 = conditions: gene CLDN7 (claudin 7); EFT-400 culture, 100 µL applied, 24 hours
Experimental: as §2, §3, §4, §5, §6

ITGB4 = conditions: gene ITGB4 (integrin, beta 4); EFT-400 culture, 100 µL applied, 24 hours
Experimental: as §2, §3, §4, §5, §6

LOR = conditions: gene LOR (loricrin); EFT-400 culture, 100 µL applied, 24 hours
Experimental: as §2, §3, §4, §5, §6

KLK5 = conditions: gene KLK5 (kallikrein-related peptidase 5); EFT-400 culture, 100 µL applied, 24 hours
Experimental: as §2, §3, §4, §5, §6

TP63 = conditions: gene TP63 (tumor protein p63); EFT-400 culture, 100 µL applied, 24 hours
Experimental: as §2, §3, §4, §5, §6

TIMP = assay: Gene expression analysis, full-thickness in vitro skin culture model (EFT-400), qPCR; type: cell-based, human; conditions: EFT-400 culture, 100 µL applied, 24 hours; values only in Fig. 6
Excerpt: (§7) Each culture was visually inspected to ensure even distribution.

LOX = assay: as above; type: cell-based, human; conditions: EFT-400 culture, 100 µL applied, 24 hours; values only in Fig. 4
Excerpt: as §7

HSP-90 = assay: as above; type: cell-based, human; conditions: EFT-400 culture, 100 µL applied, 24 hours; values only in Fig. 3
Excerpt: as §7

Q: Which “TGF- β expression in human dermal fibroblasts” value [1] does the source give for “test composition containing peptide of SEQ ID No. 1: peptide of SEQ ID No. 1 linked to oleanolic acid represented by STR#1; pentapeptide conjugate of oleanolic acid (KTTKS; also: linked to oleanolic acid, place not given here)” here?
A: The value was “increase”.

Q: And the “fibroblast growth factor expression in human dermal fibroblasts” value (Fibroblast Growth Factor)?
A: Its value is “increase”.

Q: What about the “Fold Increase” value (CDSN) of the same substance?
A: Its value is 1.78 Fold.

Q: What about the “Fold Decrease” value (PTGS2) of the same substance?
A: The value was -1.80 Fold.

Q: What about the “Fold Increase” value (CALML5) of the same substance?
A: The value was 1.91 Fold.

Q: And the “Fold Increase” value (DSG3)?
A: The value was 2.19 Fold.

Q: And the “Fold Increase” value (TGFB1)?
A: The value was 1.72 Fold.

Q: What about the “Fold Decrease” value (KRT4) of the same substance?
A: Its value is -2.11 Fold.

Q: What about the “Fold Increase” value (BMP2) of the same substance?
A: The value was 1.80 Fold.

Q: What about the “Fold Decrease” value (KRT10) of the same substance?
A: Its value is -1.71 Fold.

Q: What about the “Fold Increase” value (LCE3D) of the same substance?
A: Its value is 1.61 Fold.

Q: What about the “Fold Increase” value (PPARD) of the same substance?
A: Its value is 1.59 Fold.

Q: What about the “skin expression of HSP-47 gene” value (HSP-47) of the same substance?
A: Its value is “Up-regulation”.

Q: What about the “Fold Decrease” value (ILIA) of the same substance?
A: The value was -1.77 Fold.

Q: And the “Fold Decrease” value (IL8)?
A: Its value is -1.68 Fold.

Q: What about the “Fold Increase” value (FLG) of the same substance?
A: Its value is 2.23 Fold.

Q: And the “Fold Increase” value (MKI67)?
A: The value was 1.83 Fold.

Q: What about the “Fold Increase” value (AQP5) of the same substance?
A: The value was 1.97 Fold.

Q: What about the “Fold Decrease” value (TNF) of the same substance?
A: Its value is -4.34 Fold.

Q: What about the “Fold Increase” value (CLDN7) of the same substance?
A: Its value is 1.69 Fold.

Q: What about the “Fold Increase” value (ITGB4) of the same substance?
A: Its value is 1.76 Fold.

Q: And the “Fold Increase” value (LOR)?
A: Its value is 1.63 Fold.

Q: And the “Fold Increase” value (KLK5)?
A: The value was 2.44 Fold.

Q: What about the “Fold Increase” value (TP63) of the same substance?
A: Its value is 1.56 Fold.

Q: What about the “skin expression of TIMP gene” value (TIMP) of the same substance?
A: Its value is “Up-regulation”.

Q: What about the “skin expression of LOX gene” value (LOX) of the same substance?
A: Its value is “Up-regulation”.

Q: And the “skin expression of HSP-90 gene” value (HSP-90)?
A: The value was “Up-regulation”.
